The text below walks through data of patent US20150005281A1, “PYRIMIDINE-2,4-DIAMINE DERIVATIVES AS KINASE INHIBITORS” (Cellzome Limited, priority 2011, published 2015).

Structures are written as SMILES.

One may read the IC50 as the point on the concentration scale where inhibition reaches its midpoint.

Type in all cases: binding
One assay has as its target T1, TYK2 (Homo sapiens, UniProt P29597).
T1 construct: endogenous in cells; host or cells: Molt4 (ATCC CRL-1582) and Ramos (ATCC CRL-1596) cells; mixed lysate 1:2
Briefly: Kinobeads assay with immunodetection, TYK2. The conditions noted are these: for IC50: Kinobeads assay, mixed Molt4/Ramos lysate, read-out: Inhibition values (IC50) Tyk2. On the procedure:
(§1) Determination of the Effect of the Compounds According to the Invention on Janus Kinases (JAK Family) in Kinobeads™ Assays with Immunodetection of Kinases
(§2) The compounds of the present invention as described in the previous examples were tested in a Kinobeads™ assay as described for ZAP-70 (WO-A 2007/137867). Briefly, test compounds (at various concentrations) and the affinity matrix with the immobilized aminopyrido-pyrimidine ligand 24 were added to cell lysate aliquots and allowed to bind to the proteins in the lysate sample. After the incubation time the beads with captured proteins were separated from the lysate. Bound proteins were then eluted and the presence of JAK1, JAK2, JAK3 and TYK2 was detected and quantified using specific antibodies in a dot blot procedure and the Odyssey infrared detection system. Dose response curves for individual kinases were generated and IC50 values calculated. Kinobeads™ assays for ZAP-70 (WO-A 2007/137867) and for kinase selectivity profiling (WO-A 2006/134056) have been previously described.
(§3) The affinity matrix was washed two times with 15 mL of 1×DP buffer containing 0.2% NP40 (IGEPAL® CA-630, Sigma, #13021) and then resuspended in 1×DP buffer containing 0.2% NP40 (3% beads slurry).
(§4) 5×DP buffer: 250 mM Tris-HCl pH 7.4, 25% Glycerol, 7.5 mM MgCl2, 750 mM NaCl, 5 mM Na3VO4; filter the 5×DP buffer through a 0.22 μm filter and store in aliquots at −80° C. The 5×DP buffer is diluted with H2O to 1×DP buffer containing 1 mM DTT and 25 mM NaF.
(§5) Stock solutions of test compounds were prepared in DMSO. In a 96 well plate 30 μL solution of diluted test compounds at 5 mM in DMSO were prepared. Starting with this solution a 1:3 dilution series (9 steps) was prepared. For control experiments (no test compound) a buffer containing 2% DMSO was used.
(§6) Molt4 cells (ATCC catalogue number CRL-1582) and Ramos cells (ATCC catalogue number CRL-1596) were grown in 1 L Spinner flasks (Integra Biosciences, #182101) in suspension in RPMI 1640 medium (Invitrogen, #21875-034) supplemented with 10% Fetal Bovine Serum (Invitrogen) at a density between 0.15×10^6 and 1.2×10^6 cells/mL. Cells were harvested by centrifugation, washed once with 1×PBS buffer (Invitrogen, #14190-094) and cell pellets were frozen in liquid nitrogen and subsequently stored at −80° C. Cells were homogenized in a Potter S homogenizer in lysis buffer: 50 mM Tris-HCl, 0.8% NP40, 5% glycerol, 150 mM NaCl, 1.5 mM MgCl2, 25 mM NaF, 1 mM sodium vanadate, 1 mM DTT, pH 7.5. One complete EDTA-free tablet (protease inhibitor cocktail, Roche Diagnostics, 1873580) per 25 ml, buffer was added. The material was dounced 10 times using a mechanized POTTER S, transferred to 50 mL falcon tubes, incubated for 30 minutes on ice and spun down for 10 minutes at 20,000 g at 4° C. (10,000 rpm in Sorvall SLA600, precooled). The supernatant was transferred to an ultracentrifuge (UZ)-polycarbonate tube (Beckmann, 355654) and spun for 1 hour at 100.000 g at 4° C. (33.500 rpm in Ti50.2, precooled). The supernatant was transferred again to a fresh 50 mL falcon tube, the protein concentration was determined by a Bradford assay (BioRad) and samples containing 50 mg of protein per aliquot were prepared. The samples were immediately used for experiments or frozen in liquid nitrogen and stored frozen at −80° C.
(§7) Cell lysate (approximately 50 mg protein per plate) was thawed in a water bath at room temperature and then stored on ice. To the thawed cell lysate 1×DP 0.8% NP40 buffer containing protease inhibitors (1 tablet for 25 mL buffer; EDTA-free protease inhibitor cocktail; Roche Diagnostics 1873580) was added in order to reach a final protein concentration of 10 mg/mL total protein. The diluted cell lysate was stored on ice. Mixed Molt4/Ramos lysate was prepared by combining one volume of Molt4 lysate and two volumes of Ramos lysate (ratio 1:2). […]

Another assay deals with T2, JAK2 (Homo sapiens, UniProt O60674).
T2 construct: endogenous in cells; host or cells: Molt4 (ATCC CRL-1582) and Ramos (ATCC CRL-1596) cells; mixed lysate 1:2
T2 sequence (O60674 whole entry): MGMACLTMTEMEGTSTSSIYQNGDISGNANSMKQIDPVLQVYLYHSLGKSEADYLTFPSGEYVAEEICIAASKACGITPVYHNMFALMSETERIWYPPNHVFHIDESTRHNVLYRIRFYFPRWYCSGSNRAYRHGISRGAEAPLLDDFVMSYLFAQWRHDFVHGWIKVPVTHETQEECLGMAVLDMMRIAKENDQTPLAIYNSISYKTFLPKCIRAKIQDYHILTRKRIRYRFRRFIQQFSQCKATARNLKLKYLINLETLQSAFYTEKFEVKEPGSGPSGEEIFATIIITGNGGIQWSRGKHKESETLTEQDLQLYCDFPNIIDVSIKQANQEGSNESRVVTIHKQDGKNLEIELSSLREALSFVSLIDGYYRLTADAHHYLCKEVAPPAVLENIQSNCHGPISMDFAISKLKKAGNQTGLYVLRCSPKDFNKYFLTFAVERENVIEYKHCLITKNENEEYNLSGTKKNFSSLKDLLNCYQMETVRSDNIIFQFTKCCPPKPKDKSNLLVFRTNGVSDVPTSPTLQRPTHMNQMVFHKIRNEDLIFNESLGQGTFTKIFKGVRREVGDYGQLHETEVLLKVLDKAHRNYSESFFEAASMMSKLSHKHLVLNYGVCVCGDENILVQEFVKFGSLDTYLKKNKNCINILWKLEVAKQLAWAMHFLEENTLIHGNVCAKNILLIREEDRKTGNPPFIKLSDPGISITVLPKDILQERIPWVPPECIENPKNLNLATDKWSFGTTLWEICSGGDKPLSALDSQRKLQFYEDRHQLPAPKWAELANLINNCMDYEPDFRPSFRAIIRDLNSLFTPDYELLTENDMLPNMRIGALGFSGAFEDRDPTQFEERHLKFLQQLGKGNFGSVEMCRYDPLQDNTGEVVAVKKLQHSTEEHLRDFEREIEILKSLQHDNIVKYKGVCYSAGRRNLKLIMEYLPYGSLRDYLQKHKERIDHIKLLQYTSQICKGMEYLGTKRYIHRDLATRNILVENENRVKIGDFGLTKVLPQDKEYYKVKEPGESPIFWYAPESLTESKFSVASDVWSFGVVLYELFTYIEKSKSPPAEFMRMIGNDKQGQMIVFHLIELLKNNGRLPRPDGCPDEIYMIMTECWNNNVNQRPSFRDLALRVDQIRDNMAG
Briefly: Kinobeads assay with immunodetection, JAK2. The conditions noted are these: mixed Molt4/Ramos lysate, read-out: Inhibition values (IC50) JAK2. On the procedure: as §1, §2, §3, §4, §5, §6, §7

The target of another assay is T3, JAK3 (Homo sapiens, UniProt P52333).
T3 construct: endogenous in cells; host or cells: Molt4 (ATCC CRL-1582) and Ramos (ATCC CRL-1596) cells; mixed lysate 1:2
T3 sequence (P52333 1-1124): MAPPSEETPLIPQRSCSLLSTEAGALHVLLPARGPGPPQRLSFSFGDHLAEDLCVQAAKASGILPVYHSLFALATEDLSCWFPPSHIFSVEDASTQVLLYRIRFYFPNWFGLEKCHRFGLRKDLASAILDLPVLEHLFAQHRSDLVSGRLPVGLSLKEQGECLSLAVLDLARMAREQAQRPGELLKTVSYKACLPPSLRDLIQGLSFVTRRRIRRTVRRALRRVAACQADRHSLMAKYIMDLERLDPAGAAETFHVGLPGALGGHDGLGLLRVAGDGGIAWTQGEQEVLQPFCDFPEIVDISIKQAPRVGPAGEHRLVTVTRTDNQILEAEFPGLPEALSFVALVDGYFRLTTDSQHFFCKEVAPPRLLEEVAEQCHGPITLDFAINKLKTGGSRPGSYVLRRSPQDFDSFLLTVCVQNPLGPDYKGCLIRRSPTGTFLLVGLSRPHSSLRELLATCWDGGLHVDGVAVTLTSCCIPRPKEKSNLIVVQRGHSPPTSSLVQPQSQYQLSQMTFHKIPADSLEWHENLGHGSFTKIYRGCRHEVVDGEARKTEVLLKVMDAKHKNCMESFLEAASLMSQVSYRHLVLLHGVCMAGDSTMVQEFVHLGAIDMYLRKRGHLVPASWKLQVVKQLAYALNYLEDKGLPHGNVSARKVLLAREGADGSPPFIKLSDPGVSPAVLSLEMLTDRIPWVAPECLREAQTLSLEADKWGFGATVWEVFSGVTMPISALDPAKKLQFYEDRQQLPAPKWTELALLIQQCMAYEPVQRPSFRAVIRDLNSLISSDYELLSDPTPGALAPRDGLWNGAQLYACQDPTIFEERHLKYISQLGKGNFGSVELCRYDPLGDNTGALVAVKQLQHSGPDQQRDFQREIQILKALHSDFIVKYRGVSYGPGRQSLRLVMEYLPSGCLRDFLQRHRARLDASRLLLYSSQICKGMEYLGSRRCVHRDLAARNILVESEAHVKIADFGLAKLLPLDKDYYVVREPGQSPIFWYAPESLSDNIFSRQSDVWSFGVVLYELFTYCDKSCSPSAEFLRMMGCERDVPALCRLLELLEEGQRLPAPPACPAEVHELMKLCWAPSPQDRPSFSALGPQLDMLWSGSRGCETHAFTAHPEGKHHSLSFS
Briefly: Kinobeads assay with immunodetection, JAK3. The conditions noted are these: for IC50: Kinobeads assay, mixed Molt4/Ramos lysate, read-out: Inhibition values (IC50) JAK3. On the procedure: as §1, §2, §3, §4, §5, §6, §7

Another assay has as its target T4, JAK1 (Homo sapiens, UniProt P23458).
T4 construct: endogenous in cells; host or cells: Molt4 (ATCC CRL-1582) and Ramos (ATCC CRL-1596) cells; mixed lysate 1:2
Briefly: Kinobeads assay with immunodetection, JAK1. Conditions: for IC50: Kinobeads assay, mixed Molt4/Ramos lysate, read-out: Inhibition values (IC50) JAK1. On the procedure: as §1, §2, §3, §4, §5, §6, §7

T1 sequence (P29597 whole entry): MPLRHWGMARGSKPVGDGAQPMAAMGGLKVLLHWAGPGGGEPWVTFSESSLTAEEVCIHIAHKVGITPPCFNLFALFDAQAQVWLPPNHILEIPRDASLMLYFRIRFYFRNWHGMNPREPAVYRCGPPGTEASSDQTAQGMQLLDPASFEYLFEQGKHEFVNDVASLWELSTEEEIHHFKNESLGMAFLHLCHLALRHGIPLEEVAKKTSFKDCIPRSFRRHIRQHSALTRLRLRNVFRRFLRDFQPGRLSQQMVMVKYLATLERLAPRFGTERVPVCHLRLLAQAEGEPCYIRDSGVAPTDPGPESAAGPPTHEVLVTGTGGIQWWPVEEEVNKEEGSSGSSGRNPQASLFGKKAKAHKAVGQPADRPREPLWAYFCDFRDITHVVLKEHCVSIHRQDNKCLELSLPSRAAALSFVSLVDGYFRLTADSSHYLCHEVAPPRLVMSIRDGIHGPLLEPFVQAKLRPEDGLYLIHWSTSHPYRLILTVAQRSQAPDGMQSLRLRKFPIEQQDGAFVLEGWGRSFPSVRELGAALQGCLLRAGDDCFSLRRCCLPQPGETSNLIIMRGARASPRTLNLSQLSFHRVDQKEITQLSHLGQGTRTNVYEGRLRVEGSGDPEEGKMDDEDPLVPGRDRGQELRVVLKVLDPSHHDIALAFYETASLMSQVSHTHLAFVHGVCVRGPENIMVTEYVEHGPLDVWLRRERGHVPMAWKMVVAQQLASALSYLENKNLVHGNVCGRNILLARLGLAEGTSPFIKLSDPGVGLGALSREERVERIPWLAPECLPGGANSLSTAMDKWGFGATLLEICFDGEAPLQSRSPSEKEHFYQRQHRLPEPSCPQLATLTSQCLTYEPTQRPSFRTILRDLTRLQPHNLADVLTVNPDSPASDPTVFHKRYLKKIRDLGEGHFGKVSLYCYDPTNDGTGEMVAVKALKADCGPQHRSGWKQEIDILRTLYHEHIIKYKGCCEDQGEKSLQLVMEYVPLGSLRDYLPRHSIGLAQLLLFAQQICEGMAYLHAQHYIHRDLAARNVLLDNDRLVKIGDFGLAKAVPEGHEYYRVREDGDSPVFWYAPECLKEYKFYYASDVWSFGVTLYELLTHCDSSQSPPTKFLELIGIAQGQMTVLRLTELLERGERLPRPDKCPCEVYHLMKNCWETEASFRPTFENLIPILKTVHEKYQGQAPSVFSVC
T4 sequence (P23458 whole entry): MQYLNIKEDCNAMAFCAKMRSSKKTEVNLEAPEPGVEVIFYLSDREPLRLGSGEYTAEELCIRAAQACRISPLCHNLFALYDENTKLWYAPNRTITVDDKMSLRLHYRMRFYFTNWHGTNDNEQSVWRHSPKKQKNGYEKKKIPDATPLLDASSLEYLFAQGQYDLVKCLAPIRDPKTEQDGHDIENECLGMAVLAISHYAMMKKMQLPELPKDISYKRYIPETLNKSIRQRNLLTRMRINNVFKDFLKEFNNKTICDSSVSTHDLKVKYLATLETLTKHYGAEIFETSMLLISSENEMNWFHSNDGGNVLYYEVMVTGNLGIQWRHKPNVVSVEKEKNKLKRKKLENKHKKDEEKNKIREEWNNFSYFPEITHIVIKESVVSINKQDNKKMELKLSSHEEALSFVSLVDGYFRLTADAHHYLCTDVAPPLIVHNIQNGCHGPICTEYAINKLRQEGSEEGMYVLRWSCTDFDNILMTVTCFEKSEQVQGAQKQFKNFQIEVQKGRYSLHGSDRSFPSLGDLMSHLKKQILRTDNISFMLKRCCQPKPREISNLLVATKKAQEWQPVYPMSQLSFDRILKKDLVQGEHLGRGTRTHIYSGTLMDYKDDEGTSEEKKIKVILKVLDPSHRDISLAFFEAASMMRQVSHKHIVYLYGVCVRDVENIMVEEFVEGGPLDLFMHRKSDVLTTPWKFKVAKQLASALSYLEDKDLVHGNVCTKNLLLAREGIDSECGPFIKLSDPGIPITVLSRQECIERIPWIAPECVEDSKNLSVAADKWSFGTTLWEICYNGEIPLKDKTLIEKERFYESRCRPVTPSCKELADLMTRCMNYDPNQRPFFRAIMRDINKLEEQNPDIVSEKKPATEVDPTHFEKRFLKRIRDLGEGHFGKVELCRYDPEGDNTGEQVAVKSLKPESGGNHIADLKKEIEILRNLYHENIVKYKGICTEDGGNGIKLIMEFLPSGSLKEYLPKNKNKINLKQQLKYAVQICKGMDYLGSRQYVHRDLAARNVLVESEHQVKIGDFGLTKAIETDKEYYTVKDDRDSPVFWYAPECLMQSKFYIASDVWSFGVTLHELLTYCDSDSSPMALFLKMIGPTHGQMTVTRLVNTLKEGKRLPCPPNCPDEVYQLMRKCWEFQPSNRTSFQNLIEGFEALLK

With `Cn1cc(Nc2ncc(Cl)c(NC[C@H]3CCCN3C(=O)NC3CC3)n2)cn1` [Example 89, (R)-2-(((5-chloro-2-((1-methyl-1H-pyrazol-4-yl)amino)pyrimidin-4-yl)amino)methyl)-N-cyclopropylpyrrolidine-1-carboxamide], the half-maximal inhibitory concentration (IC50) is less than 100 nM at TYK2, 100 to 1000 nM on JAK2, 100 to 1000 nM on JAK3 and less than 100 nM on JAK1. At TYK2, the “Selectivity ratio over JAK2, Tyk2” value is listed as “Tyk2 = 5”.
For `Cn1cc(Nc2ncc(Cl)c(NC[C@H]3CCCN3CC(=O)NCC#N)n2)cn1` [Example 99, (R)-2-(2-(((5-chloro-2-((1-methyl-1H-pyrazol-4-yl)amino)pyrimidin-4-yl)amino)methyl)pyrrolidin-1-yl)-N-(cyanomethyl)acetamide], the IC50 was 100 to 1000 nM on TYK2, 1000 to 10000 nM at JAK2, less than 100 nM at JAK3 and less than 100 nM on JAK1. The “Selectivity ratio over JAK2, JAK3” value at JAK3 is “JAK3 = 155”.
As to `Cn1cc(Nc2ncc(Cl)c(NC[C@H]3CCN(C(=O)CC#N)C3)n2)cn1` [Example 58, (R)-3-(3-((5-chloro-2-(1-methyl-1H-pyrazol-4-ylamino)pyrimidin-4-ylamino)methyl)pyrrolidin-1-yl)-3-oxopropanenitrile], the IC50 at TYK2 is less than 100 nM; at JAK2 it was 100 to 1000 nM; on JAK3, less than 100 nM; on JAK1, less than 100 nM. Further, on JAK1, the “Selectivity ratio over JAK2, JAK1” value is recorded as “JAK1 = 15”.
In the case of `CC(C)NC(=O)Cn1cc(Nc2nccc(NC[C@H]3CCCN3C(=O)CCC#N)n2)cn1` [Example 94, (R)-2-(4-((4-(((1-(3-cyanopropanoyl)pyrrolidin-2-yl)methyl)amino)pyrimidin-2-yl)amino)-1H-pyrazol-1-yl)-N-isopropylacetamide], the half-inhibitory concentration (IC50) is less than 100 nM on TYK2, 1000 to 10000 nM at JAK2, 1000 to 10000 nM at JAK3 and 100 to 1000 nM on JAK1. Also, the “Selectivity ratio over JAK2, Tyk2” value at TYK2 was “Tyk2 = 609”.
`Cn1cc(Nc2ncc(Cl)c(NC[C@H]3CCCN3C(=O)CC#N)n2)cn1` [Example 52, (R)-3-(2-((5-chloro-2-(1-methyl-1H-pyrazol-4-ylamino)pyrimidin-4-ylamino)methyl)pyrrolidin-1-yl)-3-oxopropanenitrile]: the IC50 on TYK2 is less than 100 nM; on JAK2, 100 to 1000 nM; at JAK3 it was less than 100 nM; at JAK1, less than 100 nM. Also, the “Selectivity ratio over JAK2, Tyk2” value at TYK2 is “Tyk2 = 30”.
Consider `C=CS(=O)(=O)N1CC[C@@H](CNc2nc(Nc3cnn(C)c3)ncc2Cl)C1` [Example 31, (S)-5-chloro-N^2-(1-methyl-1H-pyrazol-4-yl)-N^4-((1-(vinylsulfonyl)pyrrolidin-3-yl)methyl)pyrimidine-2,4-diamine], for which the IC50 on TYK2 was 100 to 1000 nM; on JAK2, 1000 to 10000 nM; on JAK3 it was less than 100 nM; on JAK1 it was 100 to 1000 nM. Further, the “Selectivity ratio over JAK2, JAK3” value on JAK3 was “JAK3 = 190”.
`Cc1cnc(Nc2cnn(CC(F)F)c2)nc1NC[C@H]1CCN(C(=O)CCC#N)C1` [Example 130, (R)-4-(3-(((2-((1-(2,2-difluoroethyl)-1H-pyrazol-4-yl)amino)-5-methylpyrimidin-4-yl)amino)methyl)pyrrolidin-1-yl)-4-oxobutanenitrile]: the IC50 is less than 100 nM at TYK2, 100 to 1000 nM on JAK2, 100 to 1000 nM at JAK3 and less than 100 nM at JAK1. Further, on JAK1, the “Selectivity ratio over JAK2, JAK1” value is “JAK1 = 143”.
As for `Cn1cc(Nc2ncc(Cl)c(NC[C@H]3CCCN(C(=O)CCC#N)C3)n2)cn1` [Example 138, (R)-4-(3-(((5-chloro-2-((1-methyl-1H-pyrazol-4-yl)amino)pyrimidin-4-yl)amino)methyl)piperidin-1-yl)-4-oxobutanenitrile], the IC50 at TYK2 was less than 100 nM; on JAK2, 100 to 1000 nM; on JAK3, less than 100 nM; on JAK1, less than 100 nM. In addition, the “Selectivity ratio over JAK2, JAK3” value at JAK3 is “JAK3 = 23”.
As for `Cc1cnc(Nc2cnn(CC(F)F)c2)nc1NC[C@@H]1CCCN1C(=O)CCC#N` [Example 125, (S)-4-(2-(((2-((1-(2,2-difluoroethyl)-1H-pyrazol-4-yl)amino)-5-methylpyrimidin-4-yl)amino)methyl)pyrrolidin-1-yl)-4-oxobutanenitrile], the IC50 at TYK2 is less than 100 nM; at JAK2, 1000 to 10000 nM; on JAK3 it was 100 to 1000 nM; on JAK1, less than 100 nM. Also, at JAK1, the “Selectivity ratio over JAK2, JAK1” value is recorded as “JAK1 = 197”.
`Cc1cnc(Nc2cnn(CC(F)F)c2)nc1NC[C@H]1CCCN1CCS(C)(=O)=O` [Example 116, (R)—N^2-(1-(2,2-difluoroethyl)-1H-pyrazol-4-yl)-5-methyl-N^4-((1-(2-(methylsulfonyl)ethyl)pyrrolidin-2-yl)methyl)pyrimidine-2,4-diamine]: the IC50 on TYK2 is less than 100 nM; at JAK2, 1000 to 10000 nM; on JAK3, less than 100 nM; at JAK1, less than 100 nM. Moreover, at JAK1, the “Selectivity ratio over JAK2, JAK1” value was “JAK1 = 70”.
